Results as given in US20080108710A1, “High-Potency Sweetener Composition With Preservative and Compositions Sweetened Therewith” (THE COCA-COLA COMPANY, priority 2006, published 2008).

Tests used:
[1] = Rate of dissolution of rebaudioside A polymorph and amorphous forms in H2O; assay type: physicochemical
Text: The purification of rebaudioside A by crystallization as described above results in the formation of at least three different polymorphs: Form 1: a rebaudioside A hydrate; Form 2: an anhydrous rebaudioside A; and Form 3: a rebaudioside A solvate. In addition to the at least three polymorph forms of rebaudioside A, the purification of rebaudioside A may result in the formation of an amorphous form of rebaudioside A, Form 4. The aqueous organic solution and temperature of the purification process influence the resulting polymorph and amorphous forms in the substantially pure rebaudioside A composition. FIGS. 1-5 are exemplary powder x-ray diffraction (XRPD) scans of the polymorph and amorphous forms of rebaudioside A: Form 1 (hydrate), Form 2 (anhydrate), Form 3A (methanol solvate), Form 3B (ethanol solvate), and Form 4 (amorphous), respectively.

[2] = tested on: panel of experts in the sensory evaluation of foods and beverages; test: Sensory evaluation of sweetness linger and taste characteristics; assay type: in vivo; design: key: 0: no sweetness linger; 1: very slight sweetness linger; 2: slight sweetness linger; 3: moderate sweetness linger; 4: moderately high sweetness linger; 5: high sweetness linger
Protocol: Sensory evaluation of the samples prepared in Example Set G was carried out under the following protocol, similar to that described hereinabove. In this test protocol, none of the samples were swallowed. All samples were expectorated and the mouth was rinsed with water after the tasting. Immediately upon sensing maximal sweetness, the sample was expectorated, the mouth was rinsed with water and the rate of sweetness decay (“Sweetness Linger”) was measured, where attention was focused on the sweetness 3-4 min after the water rinse. After sample tasting was complete, a salty oyster cracker was chewed followed by a water rinse, and at least 5 minutes followed before tasting the next sample. […]
Sweet taste improving compositions were combined with a REBA solution to determine their effect on sweetness linger. Screening of the initial sample, or further dilutions, allowed identification of concentrations which were just above-threshold, herein defined as “near-threshold concentrations.” The near-threshold additive concentrations, a 6- to 100-fold higher higher additive concentration (depending on the off-taste intensity), and a mid-level additive concentration (halfway between the near-threshold and higher additive concentration) were evaluated to determine the effect on sweetness linger of a REBA solution. […]

Substance | Rate of dissolution in H2O at 25° C. [1] | Sweetness Linger ([2]; Example Set G: citric acid/potassium citrate composition equivalent to diet lemon-lime beverage, scale 0-5, sweetness 3-4 min after water rinse) | Sweetness Linger ([2]; Example Set H: carbon-treated water with phosphoric acid (75%) to pH 2.4-2.5, scale 0-5)
rebaudioside A [Form 2] | Intermediate (<30%/5 %/5 minutes |  | 
rebaudioside A |  | 5 | 5
rebaudioside A [Form 1] | Very low (<0.2%/60 %/60 minutes |  | 
